Our source for the IC50 values is BindingDB's records for doi:10.1021/ml300038t (2012).

The assay addresses T1, 4,4'-diapophytoene synthase (Staphylococcus aureus, UniProt A9JQL9).
T1 sequence (A9JQL9 whole entry): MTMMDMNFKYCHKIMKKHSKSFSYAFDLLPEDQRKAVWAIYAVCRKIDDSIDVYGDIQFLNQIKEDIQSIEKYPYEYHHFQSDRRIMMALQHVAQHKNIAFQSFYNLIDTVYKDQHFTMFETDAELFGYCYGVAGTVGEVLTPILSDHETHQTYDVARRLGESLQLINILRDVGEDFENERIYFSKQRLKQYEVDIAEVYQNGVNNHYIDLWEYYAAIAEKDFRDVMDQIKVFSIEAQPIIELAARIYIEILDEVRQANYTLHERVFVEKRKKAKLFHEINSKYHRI
As to the kind of experiment: Inhibition of Staphylococcus aureus His6-tagged CrtM expressed in Escherichia coli BL21(DE3) using Farnesyl pyrophosphate as substrate incubated for 30 mins prior to substrate addition by continuous spectrophotometric assay.

The term IC50 denotes the concentration needed to halve the response being measured. Compound `CCCCCCOc1cccc(CCCNC(=O)CC(=O)C(=O)O)c1` registered an IC50 of more than 300 µM.
Then `CCCCCCCCOc1ccc(C(=O)CC(=O)C(=O)O)cc1`, with more than 300 µM.
